Converted amounts (≈) assume the structure as drawn. The source made the active and inactive calls. No cut-off for these calls is given here.
What was measured:
[1] = molecular target: T1, Muscarinic acetylcholine receptor M2 (Homo sapiens, UniProt P08172); assay: Antagonist activity at cloned muscarinic M2 receptor-Gqi5 chimeric protein expressed in CHO cells assessed as acetylcholine-induced change in cytosolic calcium concentration by FLIPR assay; format: functional, cell-based; settings: read-out: pA2 (converted)
T1 sequence (P08172 whole entry): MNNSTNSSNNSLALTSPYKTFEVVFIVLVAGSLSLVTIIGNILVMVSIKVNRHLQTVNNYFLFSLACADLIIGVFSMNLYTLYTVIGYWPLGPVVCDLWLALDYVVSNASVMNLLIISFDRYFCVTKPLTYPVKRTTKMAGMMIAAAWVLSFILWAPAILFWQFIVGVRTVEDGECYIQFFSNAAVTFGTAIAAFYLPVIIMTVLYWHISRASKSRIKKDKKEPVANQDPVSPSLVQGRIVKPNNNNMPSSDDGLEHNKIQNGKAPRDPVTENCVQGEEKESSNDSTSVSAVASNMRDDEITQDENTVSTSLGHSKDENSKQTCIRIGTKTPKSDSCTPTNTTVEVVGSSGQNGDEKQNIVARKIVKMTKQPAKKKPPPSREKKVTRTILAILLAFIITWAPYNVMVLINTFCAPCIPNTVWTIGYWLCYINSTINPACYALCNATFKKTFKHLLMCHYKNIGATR

[2] = molecular target: T2, Muscarinic acetylcholine receptor M3 (Homo sapiens, UniProt P20309); assay: Antagonist activity at cloned muscarinic M3 receptor expressed in CHO cells assessed as acetylcholine-induced change in cytosolic calcium concentration by FLIPR assay; format: functional, cell-based; settings: read-out: pA2 (converted)
Target sequence in this assay (P20309 whole entry): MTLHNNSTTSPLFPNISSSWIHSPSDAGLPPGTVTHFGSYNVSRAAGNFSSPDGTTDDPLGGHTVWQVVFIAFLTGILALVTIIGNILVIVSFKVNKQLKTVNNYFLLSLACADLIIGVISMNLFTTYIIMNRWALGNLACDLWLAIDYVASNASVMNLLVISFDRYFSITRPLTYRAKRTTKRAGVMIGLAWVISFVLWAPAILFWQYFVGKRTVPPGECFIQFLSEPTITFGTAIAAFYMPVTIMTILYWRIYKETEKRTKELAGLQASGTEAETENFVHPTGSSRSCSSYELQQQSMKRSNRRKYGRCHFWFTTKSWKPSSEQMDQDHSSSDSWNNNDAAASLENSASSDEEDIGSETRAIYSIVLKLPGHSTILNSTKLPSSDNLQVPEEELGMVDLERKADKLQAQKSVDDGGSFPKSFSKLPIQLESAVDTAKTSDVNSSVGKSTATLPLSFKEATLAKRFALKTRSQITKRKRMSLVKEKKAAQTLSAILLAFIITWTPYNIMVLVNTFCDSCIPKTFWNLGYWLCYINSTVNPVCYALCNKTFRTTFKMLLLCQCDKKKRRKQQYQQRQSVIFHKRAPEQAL

[3] = molecular target: T3, Muscarinic acetylcholine receptor M1 (Homo sapiens, UniProt P11229); assay: Antagonist activity at cloned muscarinic M1 receptor expressed in CHO cells assessed as acetylcholine-induced change in cytosolic calcium concentration by FLIPR assay; format: functional, cell-based; settings: read-out: pA2 (converted)
T3 sequence (P11229 whole entry): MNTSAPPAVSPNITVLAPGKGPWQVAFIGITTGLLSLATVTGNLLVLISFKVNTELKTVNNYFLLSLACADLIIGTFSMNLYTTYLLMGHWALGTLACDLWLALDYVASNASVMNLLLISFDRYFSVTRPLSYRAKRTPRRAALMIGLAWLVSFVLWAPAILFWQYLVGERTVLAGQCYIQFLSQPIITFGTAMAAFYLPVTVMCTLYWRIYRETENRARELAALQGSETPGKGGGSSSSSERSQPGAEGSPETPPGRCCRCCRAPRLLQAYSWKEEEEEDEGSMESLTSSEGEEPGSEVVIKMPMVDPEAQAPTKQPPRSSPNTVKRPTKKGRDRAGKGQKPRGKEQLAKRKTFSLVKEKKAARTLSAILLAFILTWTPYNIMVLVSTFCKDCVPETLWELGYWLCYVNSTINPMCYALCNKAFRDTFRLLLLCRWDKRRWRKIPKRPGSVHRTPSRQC

[4] = molecular target: Muscarinic acetylcholine receptors; M2 & M3 (Homo sapiens) (UniProt P20309+P08172); assay: Selectivity for human cloned muscarinic M3 receptor over human cloned muscarinic M2 receptor
Mus musculus [5] = assay: Inhibition of methacholine-induced bronchoconstriction in intranasally single dosed conscious BALB/c mouse assessed by measuring enhanced pause at 5 ug after 15 mins by barometric plethysmography relative to control; format: functional
Mus musculus [6] = assay: Inhibition of methacholine-induced bronchoconstriction in intranasally single dosed conscious BALB/c mouse assessed by measuring enhanced pause at 5 ug after 24 hrs by barometric plethysmography relative to control; format: functional
Mus musculus [7] = assay: Inhibition of methacholine-induced bronchoconstriction in intranasally single dosed conscious BALB/c mouse assessed by measuring enhanced pause at 5 ug after 5 hrs by barometric plethysmography relative to control; format: functional
[8] = molecular target: Muscarinic acetylcholine receptor M1 and M3 (Homo sapiens) (UniProt P20309+P11229); assay: Selectivity for human cloned muscarinic M3 receptor over human cloned muscarinic M1 receptor
[9] = molecular target: T2, Muscarinic acetylcholine receptor M3; assay: Inhibition of human cloned muscarinic M3 receptor expressed in CHO cells by FLIPR assay; format: cell-based
Target sequence in this assay (P20309 whole entry): as the sequence (P20309 whole entry) above

[10] = molecular target: T3, Muscarinic acetylcholine receptor M1; assay: Inhibition of human cloned muscarinic M1 expressed in CHO cells by FLIPR assay; format: cell-based
[11] = molecular target: T1, Muscarinic acetylcholine receptor M2; assay: Inhibition of human cloned muscarinic M2 receptor-Gqi5 chimeric protein expressed in CHO cells by FLIPR assay; format: cell-based
Cytochrome P450 2C19 = Cytochrome P450 2C19 (Homo sapiens, UniProt P33261); assay: Inhibition of CYP2C19; format: ADME
[12] = molecular target: T2, Muscarinic acetylcholine receptor M3; settings: CHO
Target sequence in this assay (P20309 whole entry, looked up): as the sequence (P20309 whole entry) above
Description: Antagonist activity at cloned muscarinic M3 receptor expressed in CHO cells assessed as acetylcholine-induced change in cytosolic calcium concentration pretreated for 30 mins by FLIPR assay

Mus musculus [13] = assay: Inhibition of methacholine-induced bronchoconstriction in intranasally single dosed conscious BALB/c mouse assessed by measuring enhanced pause at 5 ug after 72 hrs by barometric plethysmography relative to control; format: functional
[14] = Inhibition of alpha adrenergic receptor at 10 uM
Cytochrome P450 1A2 = molecular target: T4, Cytochrome P450 1A2 (Homo sapiens, UniProt P05177); assay: Inhibition of CYP1A2; format: ADME
T4 sequence (P05177 whole entry): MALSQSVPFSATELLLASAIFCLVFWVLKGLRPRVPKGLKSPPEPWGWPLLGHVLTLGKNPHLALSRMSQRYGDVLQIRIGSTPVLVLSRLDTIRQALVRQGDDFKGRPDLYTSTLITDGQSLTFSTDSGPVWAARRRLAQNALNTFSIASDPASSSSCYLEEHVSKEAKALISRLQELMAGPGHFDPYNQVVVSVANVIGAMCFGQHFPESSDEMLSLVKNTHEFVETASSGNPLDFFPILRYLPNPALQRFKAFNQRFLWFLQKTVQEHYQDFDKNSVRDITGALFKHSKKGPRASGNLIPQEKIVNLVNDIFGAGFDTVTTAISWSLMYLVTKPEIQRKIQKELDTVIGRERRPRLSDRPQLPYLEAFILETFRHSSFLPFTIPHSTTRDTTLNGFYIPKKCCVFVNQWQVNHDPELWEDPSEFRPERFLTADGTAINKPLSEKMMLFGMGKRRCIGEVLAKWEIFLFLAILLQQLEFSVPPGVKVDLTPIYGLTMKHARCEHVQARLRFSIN

[15] = Inhibition of serotonin receptor at 10 uM
[16] = Permeability across artificial phospholipid membrane; format: ADME; settings: not told; read-out: permeability
[17] = molecular target: Voltage-gated inwardly rectifying potassium channel KCNH2 (Homo sapiens, UniProt Q12809); assay: Inhibition of human ERG
Cytochrome P450 2D6 = Cytochrome P450 2D6 (Homo sapiens, UniProt P10635); assay: Inhibition of CYP2D6; format: ADME
Mus musculus [18] = assay: Inhibition of methacholine-induced bronchoconstriction in intranasally single dosed conscious BALB/c mouse assessed by measuring enhanced pause at 5 ug after 48 hrs by barometric plethysmography relative to control; format: functional
[19] = Aqueous solubility of the compound; format: physicochemical; settings: buffer
[20] = Inhibition of opioid receptor at 10 uM
Cytochrome P450 2C9 = Cytochrome P450 2C9 (Homo sapiens, UniProt P11712); assay: Inhibition of CYP2C9; format: ADME
Cytochrome P450 3A4 = Cytochrome P450 3A4 (Homo sapiens, UniProt P08684); assay: Inhibition of CYP3A4; format: ADME
[21] = molecular target: T2, Muscarinic acetylcholine receptor M3; assay: Displacement of [3H]N-methyl Scopolamine from human cloned muscarinic M3 receptor expressed in CHO cells by scintillation proximity assay; format: cell-based
Target sequence in this assay (P20309 whole entry): as the sequence (P20309 whole entry) above

Sequence of Muscarinic acetylcholine receptors; M2 & M3 (Homo sapiens) (P20309 whole entry, looked up, one chain of several): as the sequence (P20309 whole entry) above
Sequence of Muscarinic acetylcholine receptor M1 and M3 (Homo sapiens) (P20309 whole entry, looked up, one chain of several): as the sequence (P20309 whole entry) above
Sequence of Cytochrome P450 2C19 (P33261 whole entry): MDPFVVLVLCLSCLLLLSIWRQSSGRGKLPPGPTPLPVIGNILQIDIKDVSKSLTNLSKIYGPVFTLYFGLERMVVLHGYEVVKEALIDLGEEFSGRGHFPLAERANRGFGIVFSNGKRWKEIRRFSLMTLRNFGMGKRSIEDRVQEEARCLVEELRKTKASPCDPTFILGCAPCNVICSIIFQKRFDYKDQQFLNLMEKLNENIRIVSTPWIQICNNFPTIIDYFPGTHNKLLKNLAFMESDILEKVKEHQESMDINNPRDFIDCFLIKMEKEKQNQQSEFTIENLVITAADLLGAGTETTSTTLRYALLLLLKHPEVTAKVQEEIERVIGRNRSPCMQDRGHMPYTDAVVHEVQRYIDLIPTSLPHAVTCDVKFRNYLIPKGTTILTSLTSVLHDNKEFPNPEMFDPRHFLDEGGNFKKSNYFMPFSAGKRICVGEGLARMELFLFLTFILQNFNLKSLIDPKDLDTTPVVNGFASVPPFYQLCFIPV
Sequence of Cytochrome P450 2D6 (P10635 whole entry): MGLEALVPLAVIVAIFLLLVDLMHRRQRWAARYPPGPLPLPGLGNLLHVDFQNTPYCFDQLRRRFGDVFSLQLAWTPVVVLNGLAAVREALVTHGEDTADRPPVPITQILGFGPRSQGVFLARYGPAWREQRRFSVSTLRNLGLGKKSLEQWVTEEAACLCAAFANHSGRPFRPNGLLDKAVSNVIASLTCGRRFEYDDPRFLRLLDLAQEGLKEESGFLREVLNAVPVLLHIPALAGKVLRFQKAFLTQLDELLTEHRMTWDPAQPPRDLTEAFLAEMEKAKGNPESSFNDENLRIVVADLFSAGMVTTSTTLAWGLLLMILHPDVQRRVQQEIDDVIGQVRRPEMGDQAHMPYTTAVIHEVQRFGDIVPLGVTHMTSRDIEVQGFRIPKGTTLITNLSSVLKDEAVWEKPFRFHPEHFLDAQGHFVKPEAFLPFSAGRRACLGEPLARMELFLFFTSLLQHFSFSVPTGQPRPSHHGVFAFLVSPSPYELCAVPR
Sequence of Cytochrome P450 2C9 (P11712 whole entry): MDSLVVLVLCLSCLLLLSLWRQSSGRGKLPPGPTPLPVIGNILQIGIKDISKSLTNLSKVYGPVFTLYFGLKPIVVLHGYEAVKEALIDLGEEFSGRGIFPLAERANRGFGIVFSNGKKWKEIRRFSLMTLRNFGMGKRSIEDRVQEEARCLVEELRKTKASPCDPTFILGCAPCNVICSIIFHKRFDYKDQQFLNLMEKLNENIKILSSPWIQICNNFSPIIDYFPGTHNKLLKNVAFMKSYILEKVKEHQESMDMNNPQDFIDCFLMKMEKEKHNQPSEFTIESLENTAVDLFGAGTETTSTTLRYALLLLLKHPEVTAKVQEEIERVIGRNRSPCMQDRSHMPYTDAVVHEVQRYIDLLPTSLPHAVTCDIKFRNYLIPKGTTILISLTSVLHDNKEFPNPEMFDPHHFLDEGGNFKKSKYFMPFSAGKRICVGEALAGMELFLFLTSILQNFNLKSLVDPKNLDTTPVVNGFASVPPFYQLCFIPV
Sequence of Voltage-gated inwardly rectifying potassium channel KCNH2 (Q12809 whole entry): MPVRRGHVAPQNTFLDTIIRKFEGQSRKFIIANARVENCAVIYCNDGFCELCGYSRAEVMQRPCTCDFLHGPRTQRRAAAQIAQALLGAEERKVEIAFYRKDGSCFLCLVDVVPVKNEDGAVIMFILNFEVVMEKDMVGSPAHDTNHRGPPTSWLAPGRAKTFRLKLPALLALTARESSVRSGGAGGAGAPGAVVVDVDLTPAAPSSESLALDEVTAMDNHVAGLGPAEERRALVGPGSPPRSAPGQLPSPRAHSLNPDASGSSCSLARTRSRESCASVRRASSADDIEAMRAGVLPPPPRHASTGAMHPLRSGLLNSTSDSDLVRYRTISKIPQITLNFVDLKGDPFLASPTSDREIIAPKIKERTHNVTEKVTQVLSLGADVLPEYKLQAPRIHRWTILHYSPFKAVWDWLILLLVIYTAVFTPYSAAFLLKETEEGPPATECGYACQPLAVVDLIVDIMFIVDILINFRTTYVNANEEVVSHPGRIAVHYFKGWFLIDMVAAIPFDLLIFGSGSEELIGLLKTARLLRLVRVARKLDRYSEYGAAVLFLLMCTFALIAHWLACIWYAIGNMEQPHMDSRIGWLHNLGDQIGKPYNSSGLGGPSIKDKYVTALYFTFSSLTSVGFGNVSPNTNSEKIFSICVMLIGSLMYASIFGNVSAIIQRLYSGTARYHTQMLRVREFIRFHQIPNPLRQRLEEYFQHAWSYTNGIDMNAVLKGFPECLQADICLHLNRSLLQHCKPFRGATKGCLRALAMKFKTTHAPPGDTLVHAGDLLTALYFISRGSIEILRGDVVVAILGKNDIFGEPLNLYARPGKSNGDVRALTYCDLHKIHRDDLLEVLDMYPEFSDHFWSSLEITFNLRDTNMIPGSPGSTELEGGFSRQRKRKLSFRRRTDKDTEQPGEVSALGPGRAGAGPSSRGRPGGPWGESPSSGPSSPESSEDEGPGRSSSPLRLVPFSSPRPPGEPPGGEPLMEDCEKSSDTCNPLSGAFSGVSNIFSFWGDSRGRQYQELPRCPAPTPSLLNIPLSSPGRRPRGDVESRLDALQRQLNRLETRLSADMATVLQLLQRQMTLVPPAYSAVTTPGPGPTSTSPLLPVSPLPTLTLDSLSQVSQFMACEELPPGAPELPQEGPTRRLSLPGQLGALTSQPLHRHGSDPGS
Sequence of Cytochrome P450 3A4 (P08684 whole entry): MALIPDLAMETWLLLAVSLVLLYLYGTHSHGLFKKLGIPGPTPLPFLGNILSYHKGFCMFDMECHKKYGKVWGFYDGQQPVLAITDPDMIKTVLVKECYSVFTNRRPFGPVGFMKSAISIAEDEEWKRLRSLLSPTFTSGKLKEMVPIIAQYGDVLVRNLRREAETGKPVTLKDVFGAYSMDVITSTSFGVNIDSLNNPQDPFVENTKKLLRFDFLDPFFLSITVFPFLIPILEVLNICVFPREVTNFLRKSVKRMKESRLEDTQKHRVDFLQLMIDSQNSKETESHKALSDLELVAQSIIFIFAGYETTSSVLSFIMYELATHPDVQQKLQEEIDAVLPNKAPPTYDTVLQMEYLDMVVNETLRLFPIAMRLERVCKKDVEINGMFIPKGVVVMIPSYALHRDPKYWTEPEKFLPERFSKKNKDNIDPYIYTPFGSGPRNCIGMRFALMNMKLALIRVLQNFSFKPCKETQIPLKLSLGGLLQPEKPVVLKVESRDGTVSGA

SMILES | Kb [1] [nM] | Kb [2] [nM] | Kb [3] [nM] | Ratio [4] | Ratio [8] | inhibition (INH) (Mus musculus [7]) [%] | also measured
C[C@H]1CN(Cc2cccc(-c3cc(CNC(=O)c4cccc(C#N)c4)ccc3F)c2)CCN1 | 316 | 0.251 | 7.94 |  |  |  | 
C[C@H]1CN(Cc2cccc(-c3cc(CNC(=O)c4cccc(CN5CC[N+](C)(C)CC5)c4)ccc3F)c2)CCN1.O=C([O-])C(F)(F)F | 12.6 |  | 2 | 80 |  | 85 | inhibition (INH) (Mus musculus [5]): 95%; Activity (Mus musculus [6]): inactive
CCC(=O)c1cccc(C(=O)NCc2ccc(F)c(-c3cccc(CN4CCN[C@@H](C)C4)c3)c2)c1 | 25.1 | 0.0501 | 1 |  |  | 20 | Activity (Mus musculus [5]): Active
O=C(NCc1cccc(-c2cccc(CN3CCNCC3)c2)c1)c1ccc2c(c1)OCO2 |  |  |  | 100 | 5 |  | IC50 [9]: 31.6 nM; IC50 [10]: 158 nM; IC50 [11]: > 3160 nM

The next lines start with results.

Kb [1] [nM] | Kb [2] [nM] | Kb [3] [nM] | Ratio [4] | Ratio [8] | SMILES | inhibition (INH) (Mus musculus [7]) [%] | also measured
63.1 | 0.158 | 1 | 400 | 6 | C[C@H]1CN(Cc2cccc(-c3cc(CNC(=O)c4cccc(CN5CCNCC5)c4)ccc3F)c2)CCN1 |  | 
5.01 | 0.01 | 2.51 | 500 | 20 | C[C@H]1CN(Cc2cccc(-c3cc(CNC(=O)c4cccc(CC5CCNCC5)c4)ccc3F)c2)CCN1 | 94 | IC50 (Cytochrome P450 2C19): > 10000 nM; pKb [12]: 10.5; inhibition (INH) (Mus musculus [13]): 25%; inhibition [14]: 70%; IC50 (Cytochrome P450 1A2): > 10000 nM; inhibition [15]: 70%; Papp [16]: < 0.3 ×10⁻⁶ cm/s; IC50 [17]: 10000 nM; IC50 (Cytochrome P450 2D6): > 10000 nM; inhibition (INH) (Mus musculus [5]): 96%; inhibition (INH) (Mus musculus [18]): 25%; solubility [19]: 200 µM (≈ 103 µg/mL); inhibition [20]: 70%; inhibition (INH) (Mus musculus [6]): 40%; IC50 (Cytochrome P450 2C9): > 10000 nM; IC50 (Cytochrome P450 3A4): > 10000 nM; Ki [21]: 0.0316 nM
100 | 0.0501 | 2.51 | 2000 | 50 | CC(=O)c1cccc(C(=O)NCc2ccc(F)c(-c3cccc(CN4CCN[C@@H](C)C4)c3)c2)c1 | 45 | Activity (Mus musculus [5]): Active

Source: ChEMBL document CHEMBL1140120, “Discovery of biphenyl piperazines as novel and long acting muscarinic acetylcholine receptor antagonists” (J Med Chem, 2008)
